The subject of series [1] is C. albicans ATCC 64124 (strain B). Nature of the series: microbe, parasite or virus in culture. The following applies: strain B; compounds 1-4n and AmB; 48 h, RPMI 1640. It is filed as cell-based, Candida albicans. In outline: (§1)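 Yeasts were precultured in potato dextrose broth, then diluted in RPMI 1640 (pH 7.0, 0.165 M MOPS) to a final 5×10^3 CFU/mL. Compounds were serially diluted two-fold to 12.5-0.02 μg/mL. Plates were incubated 48 h at 35° C.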

Series [2] relates to C. albicans ATCC 90819(R) (strain D). Description: microbe, parasite or virus in culture. It is filed as cell-based, Candida albicans. The following applies: strain D; compounds 1-4n and AmB; 48 h, RPMI 1640. An outline of the steps:
as §1

For series [3], the system named is C. albicans ATCC MYA-1003(R) (strain G). Description: microbe, parasite or virus in culture. It is filed as cell-based, Candida albicans. Conditions: strain G; compounds 1-4n and AmB; 48 h, RPMI 1640. An outline of the steps:
as §1

The test system of series [4] is C. albicans ATCC MYA-2310(S) (strain E). Nature of the series: Antifungal MIC determination (CLSI M27-A3, 96-well). It is filed as cell-based, Candida albicans. The following applies: strain E; compounds 1-4n and AmB; 48 h, RPMI 1640. An outline of the steps: as §1
In series [5] the test system is C. albicans ATCC MYA-2876(S) (strain C). The description is as above. It is filed as cell-based, Candida albicans. Conditions: strain C; compounds 1-4n and AmB; 48 h, RPMI 1640. An outline of the steps:
as §1

The test system of series [6] is Candida albicans ATCC 10231 (strain A). Described as above. It is filed as cell-based. Conditions: strain A; compounds 1-4n and AmB; 48 h, RPMI 1640. In outline:
as §1

In series [7] the test system is Candida glabrata ATCC 2001 (strain H). Described as above. It is filed as cell-based. The following applies: strain H; compounds 1-4n and AmB; 48 h, RPMI 1640. An outline of the steps:
as §1

Series [8] relates to Candida krusei ATCC 6258 (strain I). The series is described as above. It is filed as cell-based. Conditions: strain I; compounds 1-4n and AmB; 48 h, RPMI 1640. In outline: as §1
Series [9] concerns Candida parapsilosis ATCC 22019 (strain J). Described as above. It is filed as cell-based. The following applies: strain J; compounds 1-4n and AmB; 48 h, RPMI 1640. In outline:
as §1

For the next series, the system named is Candida strains (A-J). Description: Antifungal MIC, summary over panel of Candida strains. It is filed as cell-based. The procedure: Fungal MIC determination experiments were performed using untreated 96-well plates (Corning). Cells were counted either by using a hemocytometer (Hausser Scientific, Horsham, Pa., USA) or by measuring optical density at attenuance of 600 nm (OD600) by using a Genesys 20 spectrophotometer (Thermo Scientific, Waltham, Mass., USA). Spectrophotometric and colorimetric measurements in 96-well plates were performed using a SpectraMax M5 spectrometer (Molecular Devices, Sunnyvale, Calif., USA).
Yeast strains Candida albicans ATCC 10231 (strain A), C. albicans ATCC 64124 (strain B), and C. albicans ATCC MYA-2876(S) (strain C) were kindly provided by Dr. Jon Y. Takemoto (Utah State University, Logan, UT, USA). C. albicans ATCC MYA-90819(R) (strain D), C. albicans ATCC MYA-2310(S) (strain E), C. albicans ATCC 1237(R) (strain F), C. albicans ATCC MYA-1003(R) (strain G), Candida glabrata ATCC 2001 (strain H), Candida krusei ATCC 6258 (strain I), and Candida parapsilosis ATCC 22019 (strain J) were obtained from the American Type Culture Collection (ATCC, Manassas, Va., USA). The (S) and (R) indicate that ATCC reports these strains to be susceptible (S) and resistant (R) to ITC and FLC. The filamentous fungal strains Aspergillus flavus ATCC MYA-3631 (strain K), and Aspergillus terreus ATCC MYA-3633 (strain M) were also obtained from the American Type Culture Collection (ATCC, Manassas, Va., USA). Aspergillus nidulans ATCC 38163 (strain L) was kindly provided by Dr. Jon S. Thorson (University of Kentucky, Lexington, Ky., USA), respectively. Yeast strains were cultured at 35° C. Filamentous fungal strains were cultured at 25° C. and the spores were harvested. All fungal strains were cultured in RPMI 1640 medium (catalog # R6504, Sigma-Aldrich Chemical Co., St. Louis, Mo.) buffered to pH 7.0 with 0.165 M morpholinepropanesulfonic acid (MOPS) buffer (Sigma-Aldrich Chemical Co.).
The MIC values against fungal strains were determined based on a previously published protocol. MIC values for ebsulfur (2a) analogues against fungal cells were evaluated in 96-well plates as described in the CLSI document M27-A3 with minor modifications. […] Therefore, potato dextrose broth (PDB) was used to grow the yeast inocula of all strains tested, which were later diluted in RPMI 1640 medium to perform determination of MIC values. […] The tested compounds (10 mg/mL) were diluted to the working stocks (500 μg/mL) by addition of DMSO. Two-fold serial dilution of the working stocks was prepared by addition of RPMI 1640 medium (100 μL) and cell suspension (100 μL) to 96-well microtiter plate to achieve final drug and inoculum concentrations ranging from 12.5-0.02 μg/mL and 5×10^3 CFU/mL, respectively. Plates were incubated for 48 h at 35° C. […]

A further series has as its system J774A.1 cell line. Conditions: for cell death: J774, 10 μg/mL, 24 h. The procedure: The human embryonic kidney cell line HEK-293 (ATCC CRL-1573) and the murine macrophage cell line J774A.1 (ATCC TIB-67) were kindly provided by Dr. Matthew S. Gentry and Dr. David J. Feola (University of Kentucky, Lexington, Ky., USA), respectively. The HEK-293 cell line was grown in Dulbecco's Modified Eagle's Medium (DMEM) (ATCC, Manassas, Va., USA) with 10% fetal bovine serum (FBS) (ATCC, Manassas, Va., USA) and 1% Pen/Strep (ATCC, Manassas, Va., USA). The J774A.1 cell line was grown under the same conditions, except that the medium used was a different type of DMEM (catalog #30-2002, ATCC, Manassas, Va., USA). The HEK-293 cell line was passaged by trypsinization with 0.05%-trypsin-0.53 mM EDTA (ATCC, Manassas, Va., USA). The J774A.1 cell line was passaged mechanically by cell scrapers (ATCC, Manassas, Va., USA). Cell confluency was observed by using a Nikon Eclipse TS100 microscope (Minato, Tokyo, Japan).
Mammalian cytotoxicity assays were performed as previously described with minor modifications (FIG. 4). The HEK-293 and J774A.1 cell lines were grown in various Dulbecco's Modified Eagle's Medium (DMEM) with 10% fetal bovine serum (FBS) and 1% Pen/Strep at 37° C. with 5% CO2. The confluent cells were either trypsinized with 0.05%-trypsin-0.53 mM EDTA (HEK-293 cell line) or mechanically removed by cell scrapers (J774A.1 cell line). […] The cells were incubated with tested compounds for another 24 h at 37° C. with 5% CO2. Cell survival was assessed by resazurin assay. Each well was treated with resazurin (10 μL of a 25 mg/L solution) for 6 h. […] Dead cells remain purple/blue. The percentage of survival rate was calculated by using the following formula: [(test value)/(control value)×100].

Converted amounts (≈) assume the structure as drawn.

For the compound `CCCCCn1sc2ccccc2c1=O` [Compound 3a], the MIC-0 in [1] is 0.39 µg/mL (≈ 1.76 µM); in series [2], 1.56 µg/mL (≈ 7.05 µM); in series [3], 0.78 µg/mL (≈ 3.52 µM); in series [4], 0.39 µg/mL (≈ 1.76 µM); in series [5], 0.78 µg/mL (≈ 3.52 µM); in [6], 1.56 µg/mL (≈ 7.05 µM). Also, the MIC-0 came out at 1.56 µg/mL (≈ 7.05 µM) in [7], 0.78 µg/mL (≈ 3.52 µM) in series [8] and 0.78 µg/mL (≈ 3.52 µM) in series [9]. Besides, the “MIC values against clinically relevant Candida strains” value in the series on Candida strains (A-J) is 0.78 µg/mL (≈ 3.52 µM). The “fold more active than AmB” value with Candida strains (A-J) (anti-Candida) is reported as 1.25- to 10 fold. The “fold more potent in MIC values than FLC” value in the series on Candida strains (A-J) (anti-Candida, except against strain J) was 20- to 320 fold. For the same compound, the cell death result in the series on J774A.1 cell line is “approximately 50%”.

Regarding `CCCCCCn1sc2ccccc2c1=O` [Compound 3b], the MIC-0 in series [1] turned out to be 1.56 µg/mL (≈ 6.63 µM); in series [2], 1.56 µg/mL (≈ 6.63 µM); in series [3], 0.78 µg/mL (≈ 3.31 µM); in series [4] it was 0.78 µg/mL (≈ 3.31 µM); in [5] it was 0.78 µg/mL (≈ 3.31 µM); in [6], 1.56 µg/mL (≈ 6.63 µM). The MIC-0 in series [7] came to 1.56 µg/mL (≈ 6.63 µM); in series [8], 0.78 µg/mL (≈ 3.31 µM); in [9], 0.78 µg/mL (≈ 3.31 µM). Besides, the “MIC values against clinically relevant Candida strains” value against Candida strains (A-J) came out at 0.78 µg/mL (≈ 3.31 µM). Moreover, the cell death entry in the series with J774A.1 cell line is given as “approximately 50%”.

For `CC(C)(C)n1sc2ccccc2c1=O` [Compound 3g], the MIC-0 in [1] was 1.56 µg/mL (≈ 7.53 µM); in series [2] it was 1.56 µg/mL (≈ 7.53 µM); in series [3] it was 1.56 µg/mL (≈ 7.53 µM); in [4], 1.56 µg/mL (≈ 7.53 µM); in series [5], 3.13 µg/mL (≈ 15.1 µM); in series [6] it was 0.78 µg/mL (≈ 3.76 µM). The MIC-0 was found to be 1.56 µg/mL (≈ 7.53 µM) in [7], 0.78 µg/mL (≈ 3.76 µM) in [8] and 1.56 µg/mL (≈ 7.53 µM) in [9]. Besides, the “MIC values against Candida strains, range” value in the series with Candida strains (A-J) (Candida strains A-J) lay in the range of 0.78 to 3.13 µg/mL. The “concentration without any toxicity” value with J774A.1 cell line (J774, 24 h) is recorded as “up to 5 μg/mL”.

The record behind these values is patent publication US10544112B2, “Identification of ebsulfur analogues with broad-spectrum antifungal activity” (priority 2017, dated 2020).
